pEC50, pIC50: −log10 of the molar value. Like-named read-outs stand apart in the source and are kept apart here.
Columns and labels:
CD73 = CD73 (Homo sapiens (Human), UniProt P21589); assay: CD73 cellular assay (T cell stimulation assay); format: cell-based; conditions: human T cells, anti-CD3/CD28 stimulated, AMP + EHNA, 72 hours
Procedure: Procedures for T cell stimulation assay were the following: Day 1, coating the plate: diluting anti-CD3 to 1 μg/mL with sterile PBS; coating 96 well flat bottom tissue culture plates (Corning #3599) with 50 uL of diluted anti-CD3, centrifuging (1000 rpm) for 1 min; sealing the plate and incubating the plate at 4° C. overnight for antibody crosslinking.
Day 2, human T cell seeding: (a) washing the coated plate (from Day 1) with sterilized PBS buffer (2×100 uL); (b) re-suspending T cells and adjusting cell density to 0.5×10^6 cells/mL with growth media (X-VIVO 15+1% Pen/strep+1% glutamine), and seeding 100 μL/well (50,000 cells/well) in 96-well plates; (c) diluting CD28 antibody for 8x working concentration (8 μg/mL) with growth media, giving 1 μg/mL of the final concentration, followed by addition of CD28 antibody (25 μL) to cell plate; incubating the plates under 5% CO2 at 37° C. for 60 min; (d) adding compound (25 μL, 8x dilution with growth media) to cell plate, and incubating the plates under 5% CO2 at 37° C. for 60 min; (e) adding AMP (25 μL) and EHNA (25 μL, 8x dilution with growth media) to cell plate; (f) incubating the plates under 5% CO2 at 37° C. for 72 hours.
Day 5, collecting cell growth media and testing cell proliferation: (a) centrifuging the cell plate (1,000 rpm) for 5 min; (b) harvesting 150 μL of the cell culture media from each well to 96 well plate, followed by measurement of IFN-r expression by ELISA test; (c) taking a portion of the cell culture supernatant for cytokine analysis, removing the remaining supernatant, followed by addition of fresh growth media (X-VIVO 15+1% Pen/strep+1% glutamine, 100 μL); (d) adding Celltiter-Glo solution (50 μL) into each well for the measurement of cell proliferation by: (e) incubating the plates at room temperature for 10 min on a shaker; (f) transferring 100 μL solution into 96-well white plate and taking the readout of the Celltiter-Glo data using a TECAN Reader.

[1] = Pharmacokinetic evaluation in ICR mice, intravenous; format: in vivo; conditions: mouse; ICR male mice, 1.0 mg/kg intravenous, plasma
Procedure: A test compound (1.0 mg/kg) was administered to fasted ICR male mice via intravenous injection, and blood samples were collected at time points of 0.08, 0.25, 0.5, 1, 2, 4, 6, 8 and 24 h after the administration. Plasma sample was separated by centrifugation (8000 rpm) and stored at −80° C. until the sample was analyzed. Concentrations of the test compound in the plasma were determined by HPLC-MS/MS: the plasma was dispensed into appropriate tubes containing internal standard and methanol or acetonitrile. The tubes were mixed vigorously for 3 minutes to achieve deproteinization and then centrifuged at 8000 rpm for 5 minutes. The supernatant was transferred to an autosampler vial, injected into the chromatographic system, and quantified on MS/MS detector. Pharmacokinetic parameters including AUC0-t, Cmax, Tmax, t1/2, MRT, Cl and Vd were calculated using WinNonlin 6.3 software. Table 3 summarizes key PK parameters for test compounds (AUC(0-t): the area under the curve from time 0 to time t; AUC(0-∞): the area under the curve from time 0 to infinity; t1/2: Half-life; CL: clearance; C0: the concentration of drug in blood if the drug molecules enter the circulation and are distributed immediately (i.e., at time 0)).

[2] = biological target: Recombinant human 5′-nucleotidase (hCD73) (Homo sapiens (Human), UniProt P21589); assay: CD73 enzyme inhibition assay (hCD73, AMP substrate, PiColorLock Gold phosphate detection); format: biochemical; conditions: hCD73 1 nM solution, AMP 60 μM solution, 37° C. 20 min, absorbance 635 nm
Chain of Recombinant human 5′-nucleotidase (hCD73) (P21589 27-574): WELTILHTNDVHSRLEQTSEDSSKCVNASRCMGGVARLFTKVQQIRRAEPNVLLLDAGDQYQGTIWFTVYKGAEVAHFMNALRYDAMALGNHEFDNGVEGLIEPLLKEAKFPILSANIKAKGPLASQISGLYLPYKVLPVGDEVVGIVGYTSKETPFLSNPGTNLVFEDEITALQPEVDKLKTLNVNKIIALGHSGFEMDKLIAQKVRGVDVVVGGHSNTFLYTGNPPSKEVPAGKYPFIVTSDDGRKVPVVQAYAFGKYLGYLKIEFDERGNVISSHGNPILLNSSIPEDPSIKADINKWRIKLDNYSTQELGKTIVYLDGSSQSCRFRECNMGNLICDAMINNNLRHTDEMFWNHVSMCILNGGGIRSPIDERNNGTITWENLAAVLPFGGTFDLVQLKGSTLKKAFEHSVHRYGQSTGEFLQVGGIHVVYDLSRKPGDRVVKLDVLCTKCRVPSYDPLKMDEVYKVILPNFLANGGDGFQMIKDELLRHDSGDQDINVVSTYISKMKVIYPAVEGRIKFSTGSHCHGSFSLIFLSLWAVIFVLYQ
Procedure: Test compound solution preparation: Stock solution of a test compound was prepared in DMSO at 10 mM concentration. A series of preset 10-concentration solutions of a test compound were prepared by diluting the stock solution in 5-fold gradient dilution with DMSO.
Assay buffer (lx): 20 mm Tris, 25 mM NaCl, 1 mM MgCl2, pH 7.5, 0.005% Tween-20 (freshly prepared, and ready for use).
An aliquot of 0.25 μL of compound solution or DMSO (blank control) was added to each test well of a micro well plate. Recombinant human 5′-nucleotidase (hCD73) was diluted to 1 nM in assay buffer; and an aliquot of 25 μL hCD73 (1 nM) solution was added to the corresponding wells of the plate. The contents of the well were well-mixed, and the plate was covered with sealing film, centrifuged at 1000 rpm for 30 sec., followed by incubation at room temperature for 15 min. AMP, the substrate, was diluted to 60 μM concentration in the assay buffer. To each reaction well was added 25 μL of AMP solution. After mixing well, the plate was covered with sealing film, centrifuged at 1000 rpm for 30 sec., and incubated at 37° C. for 20 min. The absorbance signal (end point) was measured on SPARK plate reader at 635 nm (See PiColorLock™ Gold Phosphate Detection System (Abcam) test kit for reference).
The reaction wells containing CD73 enzyme, substrate AMP and DMSO (no compound) were used as positive control, and the reaction wells containing substrate AMP and DMSO but no CD73 enzyme were used as negative control. The percent (%) inhibition at each concentration of compound was calculated based on and relative to the signal in the High and Low control wells contained within each assay plate. The High control wells were considered as 0% inhibition, and the low control wells, which didn't contain any compound but rather DMSO (final concentration=0.5%), as 100% inhibition. IC50 values were obtained using GraphPad Prism software.

[3] = read-out: EC50, CTG (CellTiter-Glo, cell proliferation)
[4] = read-out: EC50, IFN-γ (ELISA, indicator for T-cell activity)

Chain of CD73 (P21589 27-574): as above

Structure (SMILES) | pEC50 (CD73; [3]) | pEC50 (CD73; [4]) | AUC(0-inf) [1] | AUC(0-t) [1] | Cmax [1] | half-life [1] | pIC50 [2]
O=P(O)(O)CP(=O)(O)OC[C@H]1O[C@@H](n2cnc3c(N4CCC5(CCCCC5)C4)nc(Cl)nc32)C(O)C1O (stereo partly drawn) [Compound b, reference compound] | 8.12 | 7.85 | – | – | – | – | –
O=P(O)(O)CP(=O)(O)OC[C@H]1O[C@@H](n2cnc3c(N4CC5(CCc6ccccc65)C4)nc(Cl)nc32)C(O)C1O (stereo partly drawn) [d-1] | 8.50 | 8.84 | – | – | – | – | –
O=P(O)(O)CP(=O)(O)OC[C@H]1O[C@@H](n2cnc3c(N4CCC5(CC4)Cc4ccccc4C5)nc(Cl)nc32)[C@@H](O)C1O (stereo partly drawn) [d-21] | – | – | 7450 ng·h/mL | 7430 ng·h/mL | 12200 ng/mL | 53.9 min | 8.85
O=P(O)(O)CP(=O)(O)OC[C@H]1O[C@@H](n2cnc3c(N4CCC(c5ccccc5)(c5ccccc5)C4)nc(Cl)nc32)C(O)C1O (stereo partly drawn) [d-33] | 8.39 | 8.60 | – | – | – | – | 8.75

From US20230295213A1, “CD73 INHIBITORS AND PHARMACEUTICAL USES THEREOF” (RISEN (SUZHOU) PHARMA TECH CO., LTD., priority 2018, published 2023)
